# Assay results as given in patent US20230173029A1, “TREATMENT OF CARDIAC REMODELLING” (UNIVERSITETET I OSLO, priority 2020, published 2023).
# Assays:
# Format in all cases: in vivo, rat
# [1] = system: Dahl salt-sensitive (Dahl/SS) male rats; experiment: Tail-cuff blood pressure measurement in hypertensive Dahl/SS rats; conditions: for DBP (diastolic blood pressure) / MAP (mean arterial pressure) / SBP (systolic blood pressure): HT Dahl/SS rats on high salt diet, at 6 weeks, mean ± SEM
# Experimental: (§1) A total of 29 adult Dahl salt-sensitive (Dahl/SS) male rats with an initial weight of 150 to 200 g were included in the study. Rats were purchased from Charles River Laboratories (USA) and housed in a room with a 12/12-hour light cycle, a temperature of 21° C., and a humidity of 55%. Rats were maintained on a normal salt diet up to seven weeks of age. Twenty-two Dahl/SS were then randomly switched to a high salt diet for 6 weeks to induce hypertension, whilst 7 rats were kept normotensive (NT) on normal salt diet. Drinking water and food was provided ad libitum.
# (§2) After 2 weeks of high salt diet, 15 hypertensive (HT) rats were started on treatment with proANP31-67. Rats treated with proANP31-67 received one of two dosages: 50 ng/kg/day (n=8) or 100 ng/kg/day (n=7). A total of 14 rats received only vehicle: control rats on a normal salt diet (n=7); and HT rats on a high salt diet (n=7). Rats were randomly assigned to the 3 groups (i.e. control normal salt; high salt untreated; high salt plus treatment).
# (§3) Drug or vehicle was delivered via Alzet osmotic mini-pumps (Model 2004; mean pumping rate […], mean fill volume […]) implanted subcutaneously (as instructed by the manufacturer) for 28 days. Animals were treated with buprenorphine (0.05 mg/kg s.c.) as analgesic 30 minutes before and up to 1 day following implantation of pumps.
# Measurement was carried out using the CODA non-invasive blood pressure acquisition system for rats (Kent Scientific Corporation). Animals were kept in restraint tubes and placed over a heating platform (preheated to 33 to 35° C.) and blood pressure measured by a tail-cuff system. Each recording session consisted of 25 acclimation cycles (not used in the analysis), followed by 20 inflation and deflation cycles (the occlusion cuff is inflated to 250 mm Hg and deflated over 20 s). Rats were trained for at least 5 consecutive days before blood pressure measurements were recorded.
# (§4) Experiments were performed as described above in Example 1, using a group of 8 Dahl/SS rats which, at 7 weeks of age, were switched to a high salt diet as described above. After 2 weeks of high salt diet, this group was started on proANP31-67 treatment. The rats were administered proANP31-67 at a renal sub-therapeutic dosage of 25 ng/kg/day.
# [2] = system: Dahl salt-sensitive (Dahl/SS) male rats; experiment: Transthoracic echocardiography of cardiac structure and function in hypertensive Dahl/SS rats; conditions: for E/A (ratio E wave to A wave) / EF (ejection fraction) / FS (fractional shortening) / IVS; d (inter-ventricular septum, diastole) / IVS; s (inter-ventricular septum, systole) / LA (left atrium diameter) / LV Mass (left ventricular mass) / LV Vol; d (left ventricular volume, diastole) / LV Vol; s (left ventricular volume, systole) / LVPW; d (left ventricular posterior wall, diastole) / LVPW; s (left ventricular posterior wall, systole) / RWT (relative wall thickness): HT Dahl/SS rats on high salt diet, at 6 weeks, mean ± SEM
# Experimental: as §1, §2, §3
# Cardiac function was assessed by transthoracic echocardiography using a VEVO 2100 high resolution in vivo imaging system from VisualSonics (Canada). Briefly, animals were maintained under anesthesia (1.5-2% isoflurane mixed with oxygen) on a pre-warmed ECG transducer pad with body temperature and ECG monitored. Measurements were made with an MS250 transducer, frequency set at 24 MHz. M-mode in the parasternal long axis view was performed to assess the function and dimension of the left ventricle and left atrium. LVEF was calculated as 100×((LV Vol;d−LV Vol;s)/LV Vol;d). LV mass was estimated by the formula: 1.053×((LVID;d+LVPW;d+IVS;d)3−LVID;d3). Relative wall thickness (RWT) was calculated as 2×LVPW;d/LVID;d.21 Normal geometry of the heart was defined as the 95th percentile for both LV Mass and RWT of the NT group. E and A waves in left ventricular filling velocities were assessed via pulsed-wave Doppler in a parasternal long axis view. Echocardiographic analysis were performed by an operator blinded to treatment group.
# as §4
# [3] = system: left ventricular cardiomyocytes; experiment: Cardiomyocyte isolation and t-tubule structure (di-8-ANEPPS confocal imaging); conditions: HT Dahl/SS rats, 50 or 100 ng/kg/day s.c. (pooled)
# Experimental: as §1, §2, §3
# A subset of rats was used for analyses of t-tubule structure in isolated left ventricular cardiomyocytes. These animals were anaesthetised as described above and euthanised by removal of the heart. […]
# Cardiomyocytes were then isolated as previously described (Frisk et al., American Journal of Physiology—Heart and Circulatory 307: H609-620, 2014). […] Fluorescence was excited at 488 nm and emitted light above 500 nm was measured. t-tubule captures were recorded with 1871×1871-pixel XY images, recorded as z-stacks (spatial resolution: 77×77×500 nm). […] Cell area, t-tubule density and distance to nearest t-tubule or sarcolemmal membrane were analysed as previously described (Frisk et al., Cardiovascular Research 112: 445-451, 2016).
# [4] = system: Dahl salt-sensitive (Dahl/SS) male rats; experiment: Renal function and structure in hypertensive Dahl/SS rats (data not shown); conditions: HT Dahl/SS rats
# [5] = 50 or 100 ng/kg/day s.c. (pooled) for 28 days
substance,measurement,setting,value
"proANP31-67: Human proANP31-67, linear peptide fragment of proANP consisting of SEQ ID NO: 1; also known as vessel dilator, VSDL (EVVPPQVLSEPNEEAGAALSPLPEVPPWTGEVSPAQR; listed as Homo sapiens)",DBP (diastolic blood pressure),[1]; 25 ng/kg/day s.c.,120.1 ± 4.7 mmHg
same,MAP (mean arterial pressure),[1]; 25 ng/kg/day s.c.,138.6 ± 4.1 mmHg
same,SBP (systolic blood pressure),[1]; 25 ng/kg/day s.c.,176.5 ± 3.4 mmHg
same,DBP (diastolic blood pressure),[1]; [5],128.2 ± 2.3 mmHg
same,MAP (mean arterial pressure),[1]; [5],144.9 ± 2.3 mmHg
same,SBP (systolic blood pressure),[1]; [5],179.3 ± 2.4 mmHg
same,effect on systolic blood pressure,"[1]; HT Dahl/SS rats, 25 ng/kg/day s.c., FIG. 5A",no effect
same,effect on elevated systolic blood pressure,"[1]; HT Dahl/SS rats, 50 or 100 ng/kg/day s.c. (pooled), FIG. 1A",not lowered
same,E/A (ratio E wave to A wave),[2]; 25 ng/kg/day s.c.,1.47 ± 0.08
same,EF (ejection fraction),[2]; 25 ng/kg/day s.c.,79.6 ± 1.6%
same,FS (fractional shortening),[2]; 25 ng/kg/day s.c.,49.89 ± 1.7%
same,"IVS; d (inter-ventricular septum, diastole)",[2]; 25 ng/kg/day s.c.,1.67 ± 0.03 mm
same,"IVS; s (inter-ventricular septum, systole)",[2]; 25 ng/kg/day s.c.,3.12 ± 0.10 mm
same,LA (left atrium diameter),[2]; 25 ng/kg/day s.c.,4.13 ± 0.17 mm
same,LV Mass (left ventricular mass),[2]; 25 ng/kg/day s.c.,872.5 ± 22.5 mg
same,"LV Vol; d (left ventricular volume, diastole)",[2]; 25 ng/kg/day s.c.,288.5 ± 15.4 µL
same,"LV Vol; s (left ventricular volume, systole)",[2]; 25 ng/kg/day s.c.,59.44 ± 6.2 µL
same,"LVPW; d (left ventricular posterior wall, diastole)",[2]; 25 ng/kg/day s.c.,1.67 ± 0.04 mm
same,"LVPW; s (left ventricular posterior wall, systole)",[2]; 25 ng/kg/day s.c.,2.81 ± 0.08 mm
same,RWT (relative wall thickness),[2]; 25 ng/kg/day s.c.,0.46 ± 0.02
same,E/A (ratio E wave to A wave),[2]; [5],1.6 ± 0.1
same,EF (ejection fraction),[2]; [5],78.2 ± 1.9%
same,FS (fractional shortening),[2]; [5],48.7 ± 1.8%
same,"IVS; d (inter-ventricular septum, diastole)",[2]; [5],1.7 ± 0.0 mm
same,"IVS; s (inter-ventricular septum, systole)",[2]; [5],3.1 ± 0.0 mm
same,LA (left atrium diameter),[2]; [5],4.2 ± 0.1 mm
same,LV Mass (left ventricular mass),[2]; [5],891.7 ± 12.9 mg
same,"LV Vol; d (left ventricular volume, diastole)",[2]; [5],265.1 ± 12.4 µL
same,"LV Vol; s (left ventricular volume, systole)",[2]; [5],58.0 ± 6.3 µL
same,"LVPW; d (left ventricular posterior wall, diastole)",[2]; [5],1.8 ± 0.0
same,"LVPW; s (left ventricular posterior wall, systole)",[2]; [5],2.9 ± 0.1
same,RWT (relative wall thickness),[2]; [5],0.52 ± 0.02
same,diastolic function as defined by E/A ratio,"[2]; HT Dahl/SS rats, 25 ng/kg/day s.c., FIG. 5C",preserved diastolic function
same,change in LA diameter,"[2]; HT Dahl/SS rats, 25 ng/kg/day s.c., FIG. 5D",much smaller change in LA diameter than the untreated HT group
same,proportion of treated HT rats displaying normal cardiac geometry,"[2]; HT Dahl/SS rats, 25 ng/kg/day s.c., FIG. 5E",all
same,"E/A ratio, relative fold change to NT controls","[2]; HT Dahl/SS rats, 50 or 100 ng/kg/day s.c. (pooled), FIG. 1C",preserved
same,left atrium diameter larger compared to NT rats,"[2]; HT Dahl/SS rats, 50 or 100 ng/kg/day s.c. (pooled), FIG. 1D",about 10%
same,proportion of treated HT rats showing normal geometry (LV mass and RWT),"[2]; HT Dahl/SS rats, 50 or 100 ng/kg/day s.c. (pooled), FIG. 1E",approximately 70%
same,cardiomyocyte size,[3]; FIG. 3B,preserved
same,t-tubule density,[3]; FIG. 3C,normal
same,increase of maximal intracellular distance from each point in the cytosol to the nearest t-tubule or surface membrane,[3]; FIG. 3D,prevented
same,protective effects on renal function,[4]; 25 ng/kg/day s.c.,not to display the protective effects on renal function
same,effects on renal function and structure,"[4]; 50 or 100 ng/kg/day s.c., data not shown",protective effects on renal function and structure
